# Square brackets hold non-standard residues; d marks the D form. Peptide text beside a SMILES is read from it. Nspe = C[C@H](NCC(=O)O)c1ccccc1; Nlys = NCCCCNCC(=O)O
# Key:
# NIH 3T3 cells = experiment: Metabolic activity, MTS assay; format: cell-based, mouse
# Protocol: NIH 3T3 mouse fibroblast cells were cultured in complete Dulbecco’s Modified Eagle’s Media. A peptoid solution plate (100 µL per well) was prepared by serial dilution of aqueous peptoid stock solutions in Hank’s balanced salt solution. A day-old cell monolayer was washed thoroughly with Hank’s balanced salt solution and replenished with 100 µL Hank’s balanced salt solution per well. Peptoid solutions were transferred onto the day-old cell monolayers, which contained approximately 5000 cells per well. […] The average of six replicate trials is reported.
# erythrocytes = experiment: Hemolytic activity (HD10/HD50); format: cell-based
# From the text: Table 1 Characteristics of antimicrobial peptoids, screened for activity against B. subtilis and E. coli bacterial strains. | column: HD10 / HD50
# E. coli ATCC 35218 = format: cell-based
# Outline: (§1)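 MICs determined by 2:1 serial broth microdilution in cation-adjusted Mueller-Hinton broth per CLSI M7-A6, using inoculum at 1 x 10^6 CFU/mL mixed 1:1 with peptoid solution. Three independent replicates, each with two parallel trials.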
# [1] = test system: P. aeruginosa H1027 (MDR); experiment: microbe, parasite or virus in culture; conditions: H1027 (MDR)
# Outline: (§2)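 Growth inhibition is determined by modified microdilution in Mueller Hinton broth, with peptoids prepared in 0.01% acetic acid containing 0.2% bovine serum albumin. Final inoculum is 2–7 x 10^5 CFU/mL; endpoint is absence of growth after overnight 37°C.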
# [2] = test system: P. aeruginosa LES400 (MDR); experiment: microbe, parasite or virus in culture; conditions: LES400 (MDR)
# Outline: as §2
# E. faecalis ATCC29212 = experiment: microbe, parasite or virus in culture; conditions: ATCC29212
# Outline: as §2
# E. coli 63103 (ESBL) = experiment: microbe, parasite or virus in culture; conditions: 63103 (ESBL)
# Outline: as §2
# E. faecalis F43559 (VRE) = experiment: microbe, parasite or virus in culture; conditions: F43559 (VRE)
# Outline: as §2
# [3] = test system: K. pneumonia 63575 (ESBL); experiment: microbe, parasite or virus in culture
# Outline: as §2
# P. maltophilia ATCC13637 = experiment: microbe, parasite or virus in culture; conditions: ATCC13637
# Outline: as §2
# [4] = test system: P. aeruginosa H103 (wild type); experiment: microbe, parasite or virus in culture; conditions: H103 (wild type)
# Outline: as §2
# P. aeruginosa 198 (MDR) = experiment: microbe, parasite or virus in culture; conditions: 198 (MDR)
# Outline: as §2
# [5] = test system: P. aeruginosa H1030 (MDR); experiment: microbe, parasite or virus in culture; conditions: P. aeruginosa H1030 (MDR)
# Outline: as §2
# E. coli 64771 (ESBL) = experiment: microbe, parasite or virus in culture; conditions: 64771 (ESBL)
# Outline: as §2
# P. aeruginosa 213 (MDR) = experiment: microbe, parasite or virus in culture; conditions: 213 (MDR)
# Outline: as §2
# E. faecalis W61950 (VRE) = experiment: microbe, parasite or virus in culture; conditions: W61950 (VRE)
# Outline: as §2
# [6] = test system: E. cloacae 218R Class C β-lactamase; experiment: microbe, parasite or virus in culture; conditions: 218R Class C β-lactamase
# Outline: as §2
# S. aureus ATCC25923 = experiment: microbe, parasite or virus in culture; conditions: ATCC25923
# Outline: as §2
# [7] = test system: K. pneumonia 61962 (ESBL); experiment: microbe, parasite or virus in culture
# Outline: as §2
# E. faecium T62764 (VRE) = experiment: microbe, parasite or virus in culture; conditions: T62764 (VRE)
# Outline: as §2
# S. aureus C623 (MRSA) = experiment: microbe, parasite or virus in culture; conditions: C623
# Outline: as §2
# E. faecium mic80 (VRE) = experiment: microbe, parasite or virus in culture; conditions: mic80 (VRE)
# Outline: as §2
# P. aeruginosa 9 (MDR) = experiment: microbe, parasite or virus in culture; conditions: 9 (MDR)
# Outline: as §2
# B. subtilis ATCC 6633 = format: cell-based
# Outline: as §1
Molecule,"ID50 (inhibitory dose, metabolic activity) (NIH 3T3 cells) [µM]",HD10 (hemolytic activity) (erythrocytes),HD50 (hemolytic activity) (erythrocytes),MIC E. coli (E. coli ATCC 35218) [µM],MIC [1] [µg/mL],MIC [2] [µg/mL],MIC (E. faecalis ATCC29212) [µg/mL],MIC (E. coli 63103 (ESBL)) [µg/mL],MIC (E. faecalis F43559 (VRE)) [µg/mL],MIC [3] [µg/mL],MIC (P. maltophilia ATCC13637) [µg/mL],MIC [4] [µg/mL],MIC (P. aeruginosa 198 (MDR)) [µg/mL],MIC [5] [µg/mL],MIC (E. coli 64771 (ESBL)) [µg/mL],MIC (P. aeruginosa 213 (MDR)) [µg/mL],MIC (E. faecalis W61950 (VRE)) [µg/mL],MIC [6] [µg/mL],MIC (S. aureus ATCC25923) [µg/mL],MIC [7] [µg/mL],other results
"C[C@@H](c1ccccc1)N(CC(N)=O)C(=O)CN(Cc1ccccc1)C(=O)CN(CCCCN)C(=O)CN(Cc1ccccc1)C(=O)CN(Cc1ccccc1)C(=O)CN(CCCCN)C(=O)CN(Cc1ccccc1)C(=O)CN(Cc1ccccc1)C(=O)CN(CCCCN)C(=O)CN(Cc1ccccc1)C(=O)CN(Cc1ccccc1)C(=O)CNCCCCN [Peptoid 1ach-Nspe12, H-(NLys-Npm-Npm)3-(NLys-Npm-Nspe)-NH2]",15,164,> 200,6.3,1,4,8,16,16,32,1,4,8,32,4,4,16,16,4,128,MIC (E. faecium T62764 (VRE)): 1 µg/mL; MIC (S. aureus C623 (MRSA)): 8 µg/mL; MIC (E. faecium mic80 (VRE)): 4 µg/mL; MIC (P. aeruginosa 9 (MDR)): 64 µg/mL
"C[C@H](NCC(=O)N(CC(=O)N(CCCCN)CC(=O)N(CC(=O)N(CCCCN)CC(=O)N(CC(=O)N(CCCCN)CC(=O)N(CC(=O)N(CC(=O)N(CC(=O)N(CC(=O)N(CCCCN)CC(N)=O)[C@@H](C)c1ccccc1)[C@@H](C)c1ccccc1)[C@@H](C)c1ccccc1)[C@@H](C)c1ccccc1)[C@@H](C)c1ccccc1)[C@@H](C)c1ccccc1)[C@@H](C)c1ccccc1)c1ccccc1 [Peptoid 1scr, H-(Nspe)2-(NLys-Nspe)3-(Nspe)3-NLys-NH2] (H-[Nspe][Nspe][Nlys][Nspe][Nlys][Nspe][Nlys][Nspe][Nspe][Nspe][Nspe][Nlys]-NH2)",8.5,64,> 200,6.3,4,16,8,64,8,64,2,16,32,64,16,16,32,32,8,128,MIC (E. faecium T62764 (VRE)): 2 µg/mL; MIC (S. aureus C623 (MRSA)): 8 µg/mL; MIC (E. faecium mic80 (VRE)): 8 µg/mL; MIC (P. aeruginosa 9 (MDR)): 256 µg/mL
H-(NLys-Nspe-Nspe)3-NH2 [Peptoid 1_9mer],–,–,–,25,–,–,–,–,–,–,–,–,–,–,–,–,–,–,–,–,MIC B. subtilis (B. subtilis ATCC 6633): 1.6 µM
